Laboratory results published in ChEMBL document CHEMBL5143756, “Identification of a BAZ2A-Bromodomain Hit Compound by Fragment Growing” (ACS Med Chem Lett, 2022).

Target: Bromodomain adjacent to zinc finger domain protein 2A (Homo sapiens) (UniProt Q9UIF9)
Test: Inhibition of His6-tagged BAZ2A (unknown origin) (1796 to 1899 residues) assessed as residual activity at 100 uM using H3K(Ac)14 substrate by AlphaScreen assay relative to control

Chain of Bromodomain adjacent to zinc finger domain protein 2A (Homo sapiens) (Q9UIF9 whole entry, the tested form may be a part): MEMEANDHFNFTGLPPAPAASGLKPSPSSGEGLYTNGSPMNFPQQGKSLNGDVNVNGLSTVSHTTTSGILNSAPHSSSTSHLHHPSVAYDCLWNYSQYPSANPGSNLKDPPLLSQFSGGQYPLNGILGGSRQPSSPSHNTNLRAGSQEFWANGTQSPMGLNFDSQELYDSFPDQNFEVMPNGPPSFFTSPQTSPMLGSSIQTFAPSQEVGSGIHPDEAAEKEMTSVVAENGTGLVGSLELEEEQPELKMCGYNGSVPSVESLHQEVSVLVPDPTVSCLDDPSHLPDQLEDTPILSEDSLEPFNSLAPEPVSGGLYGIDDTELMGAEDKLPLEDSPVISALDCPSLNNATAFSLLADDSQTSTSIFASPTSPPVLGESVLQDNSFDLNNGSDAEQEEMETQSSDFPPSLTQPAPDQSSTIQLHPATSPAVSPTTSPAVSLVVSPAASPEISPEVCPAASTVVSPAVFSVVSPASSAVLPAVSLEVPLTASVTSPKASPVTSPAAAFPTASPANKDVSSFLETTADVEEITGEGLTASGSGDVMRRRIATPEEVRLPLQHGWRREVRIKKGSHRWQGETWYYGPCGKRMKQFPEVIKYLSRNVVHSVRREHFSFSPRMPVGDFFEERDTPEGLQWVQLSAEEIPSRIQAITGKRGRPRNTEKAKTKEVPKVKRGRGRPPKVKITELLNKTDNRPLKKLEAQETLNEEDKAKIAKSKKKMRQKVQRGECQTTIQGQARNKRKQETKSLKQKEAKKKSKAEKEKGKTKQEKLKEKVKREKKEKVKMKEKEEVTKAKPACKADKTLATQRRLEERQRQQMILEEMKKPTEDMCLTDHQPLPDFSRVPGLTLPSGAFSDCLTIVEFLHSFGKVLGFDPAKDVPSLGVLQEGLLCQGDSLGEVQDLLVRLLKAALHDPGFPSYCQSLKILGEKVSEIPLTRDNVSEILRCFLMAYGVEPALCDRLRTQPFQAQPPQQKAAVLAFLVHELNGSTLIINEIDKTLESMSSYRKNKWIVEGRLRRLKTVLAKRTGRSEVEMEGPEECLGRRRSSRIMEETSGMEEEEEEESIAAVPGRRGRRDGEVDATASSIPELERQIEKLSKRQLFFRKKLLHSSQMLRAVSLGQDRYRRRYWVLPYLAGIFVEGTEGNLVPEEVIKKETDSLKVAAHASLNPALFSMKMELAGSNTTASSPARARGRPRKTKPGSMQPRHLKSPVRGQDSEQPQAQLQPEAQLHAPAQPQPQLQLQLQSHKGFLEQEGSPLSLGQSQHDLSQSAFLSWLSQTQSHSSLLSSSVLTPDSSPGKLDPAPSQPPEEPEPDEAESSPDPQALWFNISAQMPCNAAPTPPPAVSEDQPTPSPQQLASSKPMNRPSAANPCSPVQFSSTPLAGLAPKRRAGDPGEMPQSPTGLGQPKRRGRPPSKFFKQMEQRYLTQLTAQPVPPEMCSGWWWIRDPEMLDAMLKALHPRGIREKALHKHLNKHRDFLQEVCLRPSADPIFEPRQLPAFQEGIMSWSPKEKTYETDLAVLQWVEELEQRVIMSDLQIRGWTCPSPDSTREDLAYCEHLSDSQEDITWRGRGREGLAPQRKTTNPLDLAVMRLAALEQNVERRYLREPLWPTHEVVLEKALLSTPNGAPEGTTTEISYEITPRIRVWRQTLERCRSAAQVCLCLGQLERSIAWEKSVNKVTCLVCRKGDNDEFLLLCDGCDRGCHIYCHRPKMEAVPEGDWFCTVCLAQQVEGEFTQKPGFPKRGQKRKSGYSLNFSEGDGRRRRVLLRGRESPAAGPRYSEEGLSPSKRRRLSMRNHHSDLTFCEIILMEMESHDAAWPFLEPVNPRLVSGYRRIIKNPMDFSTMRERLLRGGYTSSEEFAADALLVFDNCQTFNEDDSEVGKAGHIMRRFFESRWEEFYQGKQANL

SMILES: CC(=O)c1c(C)[nH]c(-c2csc(N=C(N)N)n2)c1CCC(C)C
- Activity: > 50%
